Source: patent US20100221758A1, “Sensors for Measuring Contaminants” (ECI Biotech Inc., priority 2007, published 2010)
Entries after “also recorded” stand apart in the source; their conditions may differ. Starred links: 1 amine or outer side, 2 acyl side, 3 side chain; linkers in the order of their positions; H or OH if unused. Residues, ends and D or L forms follow the SMILES beside them. *: point of attachment. Glutaryl = O=C(CCCC(=O)[*:2])[*:1]; AMC = Cc1cc(=O)oc2cc(N*)ccc12

Columns and labels:
[1] = test system: lon ATP-dependent protease; assay: Assays for proteolytic activity, fluorogenic MCA substrate (Table 5); type: biochemical, Mycoplasma hyorhinis; set-up: unit not given beside the values
Excerpt: (§1) Further studies examined the suitability of the […] for use in a diagnostic test. These studies used several fluorogenic substrates consisting of small chain amino acids coupled to a methoxy coumarin fluorescent probe (MCA, (7-methoxycoumarin-4-yl)acetyl). The test conditions were “buffer,” phosphate-buffered saline (PBS), “uninfected medium,” medium from cell cultures not infected with Mycoplasma, “infected medium,” medium from cell cultures infected with Mycoplasma, and a Mycoplasma positive control derived from a Mycoplasma culture. In each case the uninfected media control had substantial background proteolytic activity, with pepA being the most candidate with a signal-to-noise ratio (S/N) of about 2, where S/N=(Vmax infected medium)/(Vmax uninfected medium).

[2] = test system: reductases produced by the bacteria; assay: Dye decolorization by bacterial culture supernatants; type: biochemical; conditions: bacterial culture supernatant, about 18 hours incubation
Experimental: Each well was incubated with 10 μg of reactive black 5 plus 190 μl of culture supernatant from the following bacterium: E. coli, E. faecalis, S. aureus, P. aeruginosa, S. pyogenes, and S. marcescens. […] The decolorization is indicative of reductases produced by the bacteria.
Reductase activity can be measured through a Azo dye that gets decolorized by the release of reductases from many bacterial cells. […] A sensor placed on the bottom of a culture dish, buffer container or even on a swab for measuring the presence of mycoplasma in human fluids can be used to ascertain bacterial contamination or infection. The benefit of a simple azo dye sensor is low cost although it may not specifically detect different bacteria. […] Each well was incubated with 10 μg of reactive black 5 plus 190 μl of filtered culture supernatant from the following bacterium: E. coli, E. faecalis, S. aureus, P. aeruginosa, S. pyogenes, and S. marcescens. […] The decolorization is indicative of reductases produced by the bacteria.

[3] = test system: thioredoxin reductase (trxB); assay: Thioredoxin reductase (trxB) detection assay; type: biochemical, Mycoplasma hyorhinis
Experimental: Other fluorescent probes such as BODIPY®FL L-cystine and the 2′,7′-difluoro-4′-(2-(5-((dimethyl amino phenyl)azo)pyridyl)dithiopropionyl aminomethyl)fluorescein (abbreviated as DFDMAP-fluorescein) were studied to improve the sensitivity and the signal-to-noise ratio of the assay. Assays were performed with 40 mM Tris pH 7.2, 100 mM NaCl±detergent.
A detergent lysis buffer procedure that would hydrolyze the simple Mycoplasma cell membranes but not lyse the tissue culture cells was needed. Methyl-6-O—(N-heptylcarbamoyl)-α-D-glucopyranoside (HECAMEG) is a preferred detergent.
An alternative substrate to produce the thioredoxin reductase signal was to measure the release of horseradish peroxidase (HRP) from a chromatography bead tethered with the heterobifunctional crosslinking reagent 3,3′-dithiobis[sulfosuccinimidylpropionate] (DTSSP).

M. hyorhinis [4] = assay: Vmax measured using MCA labeled substrates with gentle HECAMEG lysis; type: biochemical, Mycoplasma hyorhinis; set-up: Vmax: unit not given here
Experimental: (§2) A presently preferred substrate is leu-MCA that had significant activity above the uninfected media control under the gentle conditions used to lyse the Mycoplasma (0.05% HECAMEG, 1 mM MgCl2, 100 mM NaCl, 40 mM Tris buffer, pH 8.5). The MCA-Leu substrate produces a signal level of 500 mOD in 30 minutes with M. hyorhinis, while M. hyorhinis has weak activity for arg-MCA.

[5] = test system: pepA Leucine aminopeptidase; assay: Assays for proteolytic activity, fluorogenic MCA substrate (Table 5); type: biochemical, Mycoplasma hyorhinis
Excerpt: as §1

Mycoplasma cells = assay: Detergent lysis buffer procedure for trxB assay; type: cell-based
Experimental: A detergent lysis buffer procedure that would hydrolyze the simple Mycoplasma cell membranes but not lyse the tissue culture cells was needed. Methyl-6-O—(N-heptylcarbamoyl)-α-D-glucopyranoside (HECAMEG) is a preferred detergent. […] As expected, 0.1 mM NADPH enhanced the activity of trxB (FIG. 12). As a substrate for trxB, Bodipy® FL L-cystine provided a signal that was 7500 times that of the buffer control, however this signal was an artifact of the digitonin.

E. coli = assay: Thioredoxin reductase cross-reactivity with DTNB substrate; type: biochemical; conditions: up to 10^6 CFU/ml E. coli
Excerpt: (§3) Since thioredoxin reductases are widely distributed in eukaryotes and prokaryotic cells, there is a possibility that thioredoxin reductases from other microbes may cross-react with this assay to give a false positive result. […] This high NTS activity is presumed to be useful for Mycoplasma for the detoxification of reactive oxygen compounds, since the Mollicutes have simple genomes that lack the genes encoding enzymes such as catalase, peroxidase and […] that function to remove H2O2 and other oxygen radicals in other bacteria (Gibson, D. G., et al., Complete chemical synthesis, assembly, and cloning of a Mycoplasma genitalium genome. Science. 319(5867):1215-1220 (2008)).

S. aureus = assay: as above; type: biochemical; conditions: up to 10^6 CFU/ml S. aureus
Excerpt: as §3

M. hyorhinis [6] = assay: Effect of divalent cations on Vmax, MCA-Leu substrate; type: biochemical, Mycoplasma hyorhinis; set-up: unit not given here; conditions: 1 mM additive in place of 1 mM MgCl2
Experimental: as §2
Detergent lysis of M. hyorhinis with HECAMEG gives better signal than sonication. Manganese or magnesium also improves the signal to noise ratio.

[7] = test system: map Methionine aminopeptidase; assay: Assays for proteolytic activity, fluorogenic MCA substrate (Table 5); type: biochemical, Mycoplasma hyorhinis; set-up: unit not given beside the values
Excerpt: as §1

Cc1cc(=O)oc2cc(NC(=O)[C@H](Cc3ccccc3)NC(=O)[C@H](C)NC(=O)[C@H](C)NC(=O)CCCC(=O)O)ccc12 [glt-ala-ala-phe-MCA] (Glutaryl-Ala-Ala-Phe-{AMC})
Vmax ([1]; Buffer (PBS)): 55.8
Vmax ([1]; Infected medium): 1802
Vmax ([1]; Mycoplasma positive control): 3354
Vmax ([1]; Uninfected medium): 1460

CN(C)c1ccc(N=Nc2ccc(C(=O)O)cc2)cc1 [DABCYL, 4-((4-(dimethylamino)phenyl)azo)benzoic acid]
decolorization [2]: completely decolorized

Cc1cc(C)n2c1C=C1C=CC(CCC(=O)N[C@@H](CSSC[C@H](NC(=O)CCC3=[N+]4C(=Cc5c(C)cc(C)n5[B-]4(F)F)C=C3)C(=O)O)C(=O)O)=[N+]1[B-]2(F)F [Bodipy® FL L-cystine, BODIPY®FL L-cystine]
signal relative to buffer control ([3]; signal was an artifact of the digitonin): 7500 times

leucine-(7-methoxycoumarin-4-yl)acetyl [leu-MCA]
Vmax (M. hyorhinis [4]; Buffer): 236
Vmax (M. hyorhinis [4]; Infected medium): 415190
Vmax (M. hyorhinis [4]; Medium): 2118
Vmax (M. hyorhinis [4]; Uninfected medium): 17422
signal level (M. hyorhinis [4]; in 30 minutes with M. hyorhinis): 500 mOD
Vmax ([5]; Buffer (PBS)): 2874
Vmax ([5]; Infected medium): 906
Vmax ([5]; Mycoplasma positive control): 522
Vmax ([5]; Uninfected medium): 454

arginine-(7-methoxycoumarin-4-yl)acetyl [arg-MCA]
activity of M. hyorhinis for substrate (M. hyorhinis [4]; 0.05% HECAMEG, 1 mM MgCl2, 100 mM NaCl, 40 mM Tris buffer, pH 8.5): weak activity
Vmax (M. hyorhinis [4]; Buffer): 0
Vmax (M. hyorhinis [4]; Infected medium): 60903
Vmax (M. hyorhinis [4]; Medium): 676
Vmax (M. hyorhinis [4]; Uninfected medium): 29034

CCCCCCCNC(=O)OC[C@H]1O[C@H](OC)[C@H](O)[C@@H](O)[C@@H]1O [HECAMEG, Methyl-6-O—(N-heptylcarbamoyl)-α-D-glucopyranoside]
concentration sufficient to lyse Mycoplasma cells while not disrupting the membranes of the cultured cells (Mycoplasma cells): 0.5%

O=C(O)c1cc(SSc2ccc([N+](=O)[O-])c(C(=O)O)c2)ccc1[N+](=O)[O-] [DTNB, 5,5′-Dithio-bis-(2-nitrobenzoic acid)]
hydrolysis / thioredoxin reductase activity (E. coli): no significant activity; also recorded: no appreciable hydrolysis
hydrolysis / thioredoxin reductase activity (S. aureus): no significant activity; also recorded: no appreciable hydrolysis

[Cl][Mn][Cl] [MnCl2]
Vmax, MCA-Leu Substrate (M. hyorhinis [6]; Medium): 1703

O=S(=O)([O-])[O-].[Mg+2] [MgSO4]
Vmax, MCA-Leu Substrate (M. hyorhinis [6]; Buffer): 483
Vmax, MCA-Leu Substrate (M. hyorhinis [6]; Infected): 90365
Vmax, MCA-Leu Substrate (M. hyorhinis [6]; Uninfected): 5125

methionine-(7-methoxycoumarin-4-yl)acetyl [met-MCA]
Vmax (M. hyorhinis [4]; Buffer): 125
Vmax (M. hyorhinis [4]; Infected medium): 302082
Vmax (M. hyorhinis [4]; Medium): 1731
Vmax (M. hyorhinis [4]; Uninfected medium): 19004
Vmax ([7]; Buffer (PBS)): 19.4
Vmax ([7]; Infected medium): 627
Vmax ([7]; Mycoplasma positive control): 733
Vmax ([7]; Uninfected medium): 430

Nc1c(N=Nc2ccc(S(=O)(=O)CCOS(=O)(=O)[O-])cc2)c(S(=O)(=O)[O-])cc2cc(S(=O)(=O)[O-])c(N=Nc3ccc(S(=O)(=O)CCOS(=O)(=O)[O-])cc3)c(O)c12.[Na+].[Na+].[Na+].[Na+] [reactive black 5]
decolorization [2]: completely decolorized

CN(C)c1ccc(N=Nc2ccc(SSCCC(=O)NCc3c(O)c(F)cc4c(-c5ccccc5C(=O)O)c5cc(F)c(=O)cc-5oc34)nc2)cc1 [DFDMAP fluorescein, 2′,7′-difluoro-4′-(2-(5-((dimethylaminophenyl)azo)pyridyl)dithiopropionylaminomethyl)fluorescein]
detection level ([3]; at 10^7-10^8 CFU/ml): 10,000-20,000 RFU

CCN(Cc1cccc(S(=O)(=O)[O-])c1)c1ccc(C(=C2C=CC(=[N+](CC)Cc3cccc(S(=O)(=O)[O-])c3)C=C2)c2ccccc2S(=O)(=O)[O-])cc1.[Na+].[Na+] [blue dye number 1]
decolorization [2]: not decolorized

O=C(O)CN(CCN(CC(=O)O)CC(=O)O)CC(=O)O [EDTA]
Vmax, MCA-Leu Substrate (M. hyorhinis [6]; Buffer): 0
Vmax, MCA-Leu Substrate (M. hyorhinis [6]; Infected): 45241
Vmax, MCA-Leu Substrate (M. hyorhinis [6]; Medium): 1710
Vmax, MCA-Leu Substrate (M. hyorhinis [6]; Uninfected): 3873
